From patent US9266878B2, “Phosphatidylinositol 3-kinase inhibitors” (Gilead Calistoga LLC, priority 2012, dated 2016)

Legend:
Test in all cases: Enzymatic activity of PI3K isoforms, TR-FRET assay (PIP3 formation)
Format in all cases: biochemical
PI3Kα = PI3Kα (Homo sapiens (Human), UniProt P42336)
Outline: (§1)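 After 30 min at 25° C, reactions were quenched with 10 mM EDTA plus 10 nM labeled-PIP3 and 35 nM Europium-GRP-1, and TR-FRET was read (Ex 340, Em 615/665 nm). Enzymes were purified recombinant heterodimers; product PIP3 competes off the labeled tracer. Values given as IC50, nM.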

PI3Kδ = PI3Kδ (Homo sapiens (Human), UniProt O00329); settings: bound given in nM
Outline: as §1

PI3Kγ = PI3Kγ (Homo sapiens (Human), UniProt P48736)
Outline: (§2)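 IC50 (nM) reflects inhibition of PIP3 formation by purified recombinant heterodimeric PI3K, measured as loss of TR-FRET signal. The read-out comes from competition between enzyme-made PIP3 and labelled PIP3 for binding to the GRP-1 pleckstrin homology domain.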

PI3Kβ = PI3Kβ (Homo sapiens (Human), UniProt P42338)
Outline: as §2

Sequence of PI3Kβ (P42338 whole entry): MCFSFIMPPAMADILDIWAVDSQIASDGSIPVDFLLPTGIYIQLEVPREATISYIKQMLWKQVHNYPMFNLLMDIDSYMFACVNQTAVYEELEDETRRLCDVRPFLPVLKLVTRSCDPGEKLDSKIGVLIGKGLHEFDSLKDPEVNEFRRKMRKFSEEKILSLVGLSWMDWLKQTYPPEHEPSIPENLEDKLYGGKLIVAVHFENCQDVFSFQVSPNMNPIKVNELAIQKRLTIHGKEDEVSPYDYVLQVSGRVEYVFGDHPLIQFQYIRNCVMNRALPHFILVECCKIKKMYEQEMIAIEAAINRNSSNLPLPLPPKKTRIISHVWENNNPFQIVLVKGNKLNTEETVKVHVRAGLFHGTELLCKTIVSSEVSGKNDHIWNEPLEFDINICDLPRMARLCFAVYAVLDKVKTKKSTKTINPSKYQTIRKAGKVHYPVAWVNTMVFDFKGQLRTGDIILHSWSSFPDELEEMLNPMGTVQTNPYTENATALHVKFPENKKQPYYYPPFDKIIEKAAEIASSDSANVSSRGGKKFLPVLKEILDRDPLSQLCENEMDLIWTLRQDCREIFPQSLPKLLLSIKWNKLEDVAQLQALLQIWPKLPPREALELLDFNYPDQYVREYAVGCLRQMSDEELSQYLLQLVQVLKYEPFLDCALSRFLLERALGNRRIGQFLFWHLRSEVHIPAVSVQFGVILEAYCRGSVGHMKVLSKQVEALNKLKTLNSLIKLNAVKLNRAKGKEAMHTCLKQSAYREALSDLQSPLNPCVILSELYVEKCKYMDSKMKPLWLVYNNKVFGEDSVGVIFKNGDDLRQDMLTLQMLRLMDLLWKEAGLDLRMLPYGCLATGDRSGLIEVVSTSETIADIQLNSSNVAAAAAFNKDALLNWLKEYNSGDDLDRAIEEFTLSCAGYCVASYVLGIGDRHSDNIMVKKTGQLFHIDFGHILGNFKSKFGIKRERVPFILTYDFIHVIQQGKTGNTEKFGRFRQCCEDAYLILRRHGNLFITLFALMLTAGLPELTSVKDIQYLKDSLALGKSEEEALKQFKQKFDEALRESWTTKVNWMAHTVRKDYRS
Sequence of PI3Kβ (P27986 whole entry partner): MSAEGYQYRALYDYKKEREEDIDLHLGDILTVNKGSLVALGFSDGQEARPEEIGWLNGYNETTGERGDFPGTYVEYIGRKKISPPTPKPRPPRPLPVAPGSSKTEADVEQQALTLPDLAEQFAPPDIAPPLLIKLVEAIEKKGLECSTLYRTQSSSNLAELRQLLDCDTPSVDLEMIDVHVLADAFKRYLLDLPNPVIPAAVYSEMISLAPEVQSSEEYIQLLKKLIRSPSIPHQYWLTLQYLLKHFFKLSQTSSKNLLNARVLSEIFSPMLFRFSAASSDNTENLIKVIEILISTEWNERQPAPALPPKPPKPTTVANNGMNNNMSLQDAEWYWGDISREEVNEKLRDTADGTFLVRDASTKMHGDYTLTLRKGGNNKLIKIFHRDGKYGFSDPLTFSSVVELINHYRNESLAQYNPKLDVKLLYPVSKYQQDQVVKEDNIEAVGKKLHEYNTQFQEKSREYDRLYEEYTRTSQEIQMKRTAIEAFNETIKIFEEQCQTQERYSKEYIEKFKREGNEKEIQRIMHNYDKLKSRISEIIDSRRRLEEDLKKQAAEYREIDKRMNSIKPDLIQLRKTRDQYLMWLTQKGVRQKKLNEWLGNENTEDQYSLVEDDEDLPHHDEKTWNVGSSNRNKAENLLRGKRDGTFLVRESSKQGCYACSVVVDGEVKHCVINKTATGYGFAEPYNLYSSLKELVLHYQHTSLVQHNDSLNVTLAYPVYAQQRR
Sequence of PI3Kδ (O00329 whole entry): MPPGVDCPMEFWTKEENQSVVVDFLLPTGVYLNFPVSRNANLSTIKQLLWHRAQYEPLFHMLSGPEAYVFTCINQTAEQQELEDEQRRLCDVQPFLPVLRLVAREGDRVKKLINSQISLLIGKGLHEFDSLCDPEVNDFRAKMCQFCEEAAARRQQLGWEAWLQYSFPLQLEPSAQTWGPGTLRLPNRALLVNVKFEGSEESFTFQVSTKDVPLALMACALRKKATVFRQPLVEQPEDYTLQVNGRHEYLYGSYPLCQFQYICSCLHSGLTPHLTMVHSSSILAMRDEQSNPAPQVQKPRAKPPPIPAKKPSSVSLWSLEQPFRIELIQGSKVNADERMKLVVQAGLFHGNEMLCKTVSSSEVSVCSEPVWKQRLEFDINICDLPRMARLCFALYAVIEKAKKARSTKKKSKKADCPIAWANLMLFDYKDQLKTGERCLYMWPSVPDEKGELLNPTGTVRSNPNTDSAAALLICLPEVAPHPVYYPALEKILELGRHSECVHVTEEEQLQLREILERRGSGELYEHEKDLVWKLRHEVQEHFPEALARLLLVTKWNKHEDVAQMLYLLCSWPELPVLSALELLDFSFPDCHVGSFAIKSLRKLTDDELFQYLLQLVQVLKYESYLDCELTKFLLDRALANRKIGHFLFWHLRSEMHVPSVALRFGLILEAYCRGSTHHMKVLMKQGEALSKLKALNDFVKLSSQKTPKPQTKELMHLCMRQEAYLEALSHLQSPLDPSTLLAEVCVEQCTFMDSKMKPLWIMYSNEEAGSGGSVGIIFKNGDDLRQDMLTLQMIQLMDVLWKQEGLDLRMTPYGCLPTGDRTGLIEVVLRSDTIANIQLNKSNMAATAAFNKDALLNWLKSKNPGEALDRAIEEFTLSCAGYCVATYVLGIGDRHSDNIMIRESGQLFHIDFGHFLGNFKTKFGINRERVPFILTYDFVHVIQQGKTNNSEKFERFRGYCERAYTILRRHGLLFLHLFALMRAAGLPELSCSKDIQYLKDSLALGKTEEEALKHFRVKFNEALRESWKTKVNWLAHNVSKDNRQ
Sequence of PI3Kδ (P27986 whole entry partner): as the sequence (P27986 whole entry partner) above
Sequence of PI3Kα (P42336 whole entry): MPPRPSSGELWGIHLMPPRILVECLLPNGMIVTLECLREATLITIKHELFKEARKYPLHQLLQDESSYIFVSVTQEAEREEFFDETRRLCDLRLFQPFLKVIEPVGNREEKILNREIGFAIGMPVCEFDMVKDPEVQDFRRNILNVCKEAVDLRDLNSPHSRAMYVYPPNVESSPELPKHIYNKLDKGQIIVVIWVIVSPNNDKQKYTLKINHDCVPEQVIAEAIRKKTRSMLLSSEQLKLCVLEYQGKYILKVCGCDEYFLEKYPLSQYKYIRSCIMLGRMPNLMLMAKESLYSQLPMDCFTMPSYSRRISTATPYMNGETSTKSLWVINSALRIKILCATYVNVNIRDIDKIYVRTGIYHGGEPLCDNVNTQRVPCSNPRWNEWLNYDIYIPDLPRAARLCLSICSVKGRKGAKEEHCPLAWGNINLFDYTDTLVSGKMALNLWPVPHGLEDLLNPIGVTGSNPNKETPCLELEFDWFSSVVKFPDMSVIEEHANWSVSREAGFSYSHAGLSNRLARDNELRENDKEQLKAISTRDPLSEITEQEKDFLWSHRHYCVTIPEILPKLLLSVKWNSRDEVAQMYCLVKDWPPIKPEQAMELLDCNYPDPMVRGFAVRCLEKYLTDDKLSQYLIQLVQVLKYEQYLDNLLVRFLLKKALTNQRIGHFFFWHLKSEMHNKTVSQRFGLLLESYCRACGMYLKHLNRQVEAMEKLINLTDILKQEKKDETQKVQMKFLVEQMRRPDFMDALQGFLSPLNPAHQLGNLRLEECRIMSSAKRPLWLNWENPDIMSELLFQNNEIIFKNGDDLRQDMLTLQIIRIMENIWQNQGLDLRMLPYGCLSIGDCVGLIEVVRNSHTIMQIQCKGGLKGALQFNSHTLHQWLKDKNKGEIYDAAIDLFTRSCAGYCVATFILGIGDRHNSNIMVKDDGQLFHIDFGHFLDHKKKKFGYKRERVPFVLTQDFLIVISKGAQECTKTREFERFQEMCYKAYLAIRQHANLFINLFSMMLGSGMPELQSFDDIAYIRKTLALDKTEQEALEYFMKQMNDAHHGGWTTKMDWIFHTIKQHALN
Sequence of PI3Kα (P27986 whole entry partner): as the sequence (P27986 whole entry partner) above

Row | SMILES | IC50 (PI3Kα; bound given in uM) | IC50 (PI3Kδ) | IC50 (PI3Kγ; bound given in uM) | IC50 (PI3Kβ; bound given in uM) | IC50 (PI3Kα; bound given in nM) | IC50 (PI3Kγ; bound given in nM) | IC50 (PI3Kβ; bound given in nM)
1 | C[C@H](Nc1ncnc(N)c1C#Cc1ccc(F)cn1)c1nc2c(F)ccc(F)c2c(=O)n1-c1cc(F)cc(F)c1 [Compound 1a, (S)-2-(1-((6-amino-5-((5-fluoropyridin-2-yl)ethynyl)pyrimidin-4-yl)amino)ethyl)-3-(3,5-difluorophenyl)-5,8-difluoroquinazolin-4(3H)-one] | > 1 µM | < 100 nM | > 1 µM | > 1 µM |  |  | 
2 | C[C@H](Nc1ncnc(N)c1C#C[C@@H](C)O)c1nc2cccc(Cl)c2c(=O)n1-c1ccccc1 [Compound 19a, 2-((S)-1-(6-amino-5-((R)-3-hydroxybut-1-ynyl)pyrimidin-4-ylamino)ethyl)-5-chloro-3-phenylquinazolin-4(3H)-one] | > 1 µM | < 100 nM | > 1 µM | > 1 µM |  |  | 
3 | C[C@H](O)C#Cc1c(N)ncnc1N[C@@H](C)c1nc2cccc(Cl)c2c(=O)n1-c1ccccc1 [Compound 19b, 2-((S)-1-(6-amino-5-((S)-3-hydroxybut-1-ynyl)pyrimidin-4-ylamino)ethyl)-5-chloro-3-phenylquinazolin-4(3H)-one] | > 1 µM | < 100 nM | > 1 µM | > 1 µM |  |  | 
4 | C[C@H](Nc1ncnc(N)c1C#C[C@@H](C)O)c1nc2cccc(Cl)c2c(=O)n1-c1cc(F)cc(F)c1 [Compound 20a, 2-((S)-1-(6-amino-5-((R)-3-hydroxybut-1-ynyl)pyrimidin-4-ylamino)ethyl)-5-chloro-3-(3,5-difluorophenyl)quinazolin-4(3H)-one] | > 1 µM | < 100 nM | > 1 µM | > 1 µM |  |  | 
5 | C[C@H](O)C#Cc1c(N)ncnc1N[C@@H](C)c1nc2cccc(Cl)c2c(=O)n1-c1cc(F)cc(F)c1 [Compound 20b, 2-((S)-1-(6-amino-5-((S)-3-hydroxybut-1-ynyl)pyrimidin-4-ylamino)ethyl)-5-chloro-3-(3,5-difluorophenyl)quinazolin-4(3H)-one] | > 1 µM | < 100 nM | > 1 µM | > 1 µM |  |  | 
6 | C[C@H](Nc1ncnc(N)c1C#CC1CC1)c1nc2cccc(Cl)c2c(=O)n1-c1cc(F)cc(F)c1 [Compound 23a, (S)-2-(1-(6-amino-5-(cyclopropylethynyl)pyrimidin-4-ylamino)ethyl)-5-chloro-3-(3,5-difluorophenyl)quinazolin-4(3H)-one] | > 1 µM | < 100 nM | > 1 µM | > 1 µM |  |  | 
7 | C[C@H](Nc1ncnc(N)c1C#CC1CC1)c1nc2cccc(Cl)c2c(=O)n1-c1ccccc1 [Compound 24a, (S)-2-(1-(6-amino-5-(cyclopropylethynyl)pyrimidin-4-ylamino)ethyl)-5-chloro-3-phenylquinazolin-4(3H)-one] | > 1 µM | < 100 nM | > 1 µM | > 1 µM |  |  | 
8 | C[C@H](Nc1ncnc(N)c1C#CC(C)(C)O)c1nc2cccc(Cl)c2c(=O)n1-c1cc(F)cc(F)c1 [Compound 28a, (S)-2-(1-(6-amino-5-(3-hydroxy-3-methylbut-1-ynyl)pyrimidin-4-ylamino)ethyl)-5-chloro-3-(3,5-difluorophenyl)quinazolin-4(3H)-one] | > 1 µM | < 100 nM | > 1 µM | > 1 µM |  |  | 
9 | C[C@H](Nc1ncnc(N)c1C#CC(C)(C)O)c1nc2cccc(Cl)c2c(=O)n1-c1ccccc1 [Compound 29a, (S)-2-(1-(6-amino-5-(3-hydroxy-3-methylbut-1-ynyl)pyrimidin-4-ylamino)ethyl)-5-chloro-3-phenylquinazolin-4(3H)-one] | > 1 µM | < 100 nM | > 1 µM | > 1 µM |  |  | 
10 | C[C@H](Nc1ncnc(N)c1C#Cc1cncnc1)c1nc2cccc(Cl)c2c(=O)n1-c1cc(F)cc(F)c1 [Compound 41a, (S)-2-(1-(6-amino-5-(pyrimidin-5-ylethynyl)pyrimidin-4-ylamino)ethyl)-5-chloro-3-(3,5-difluorophenyl)quinazolin-4(3H)-one] | > 1 µM | < 100 nM | > 1 µM | > 1 µM |  |  | 
11 | C[C@H](Nc1ncnc(N)c1C#Cc1ccccn1)c1nc2cccc(Cl)c2c(=O)n1-c1cc(F)cc(F)c1 [Compound 45a, (S)-2-(1-(6-amino-5-(pyridin-2-ylethynyl)pyrimidin-4-ylamino)ethyl)-5-chloro-3-(3,5-difluorophenyl)quinazolin-4(3H)-one] | > 1 µM | < 100 nM | > 1 µM | > 1 µM |  |  | 

Second part, the molecule after the results:

Row | IC50 (PI3Kα; bound given in uM) | IC50 (PI3Kδ) | IC50 (PI3Kγ; bound given in uM) | IC50 (PI3Kβ; bound given in uM) | IC50 (PI3Kα; bound given in nM) | IC50 (PI3Kγ; bound given in nM) | IC50 (PI3Kβ; bound given in nM) | SMILES
12 | > 1 µM | < 100 nM | > 1 µM | > 1 µM |  |  |  | C[C@H](Nc1ncnc(N)c1C#Cc1ccc(F)cn1)c1nc2c(F)cccc2c(=O)n1-c1cc(F)cc(F)c1 [Compound 2a, (S)-2-(1-((6-amino-5-((5-fluoropyridin-2-yl)ethynyl)pyrimidin-4-yl)amino)ethyl)-3-(3,5-difluorophenyl)-8-fluoroquinazolin-4(3H)-one]
13 | > 1 µM | < 100 nM | > 1 µM | > 1 µM |  |  |  | C[C@H](Nc1ncnc(N)c1C#Cc1ccc(F)cn1)c1nc2c(Cl)cccc2c(=O)n1-c1ccccc1 [Compound 5a, (S)-2-(1-(6-amino-5-((5-fluoropyridin-2-yl)ethynyl)pyrimidin-4-ylamino)ethyl)-8-chloro-3-phenylquinazolin-4(3H)-one]
14 | > 1 µM | < 100 nM | > 1 µM | > 1 µM |  |  |  | C[C@H](Nc1ncnc(N)c1C#Cc1ccc(F)cn1)c1nc2cccc(F)c2c(=O)n1-c1cc(F)cc(F)c1 [Compound 7a, (S)-2-(1-(6-amino-5-((5-fluoropyridin-2-yl)ethynyl)pyrimidin-4-ylamino)ethyl)-3-(3,5-difluorophenyl)-5-fluoroquinazolin-4(3H)-one]
15 | > 1 µM | < 100 nM | > 1 µM | > 1 µM |  |  |  | C[C@H](Nc1ncnc(N)c1C#Cc1ccc(F)cn1)c1nc2cccc(F)c2c(=O)n1-c1ccccc1 [Compound 8a, (S)-2-(1-(6-amino-5-((5-fluoropyridin-2-yl)ethynyl)pyrimidin-4-ylamino)ethyl)-5-fluoro-3-phenylquinazolin-4(3H)-one]
16 |  | < 100 nM |  |  | < 0.1 µM | < 0.1 µM | < 0.1 µM | C[C@H](Nc1ncnc(N)c1C#Cc1cnc(N)cc1C(F)(F)F)c1nc2cccc(Cl)c2c(=O)n1-c1ccccc1 [Compound 18a, (S)-2-(1-(6-amino-5-((6-amino-4-(trifluoromethyl)pyridin-3-yl)ethynyl)pyrimidin-4-ylamino)ethyl)-5-chloro-3-phenylquinazolin-4(3H)-one]
17 |  | < 100 nM |  |  | < 0.1 µM | < 0.1 µM | < 0.1 µM | C[C@H](Nc1ncnc(N)c1C#Cc1cccc(N)n1)c1nc2cccc(Cl)c2c(=O)n1-c1ccccc1 [Compound 31a, (S)-2-(1-(6-amino-5-((6-aminopyridin-2-yl)ethynyl)pyrimidin-4-ylamino)ethyl)-5-chloro-3-phenylquinazolin-4(3H)-one]
18 |  | < 100 nM |  |  | < 0.1 µM | < 0.1 µM | < 0.1 µM | C[C@H](Nc1ncnc(N)c1C#Cc1cnc(N)nc1)c1nc2cccc(Cl)c2c(=O)n1-c1ccccc1 [Compound 33a, (S)-2-(1-(6-amino-5-((2-aminopyrimidin-5-yl)ethynyl)pyrimidin-4-ylamino)ethyl)-5-chloro-3-phenylquinazolin-4(3H)-one]
19 |  | < 100 nM |  |  | < 0.1 µM | < 0.1 µM | < 0.1 µM | C[C@H](Nc1ncnc(N)c1C#Cc1ccc(N)cn1)c1nc2cccc(Cl)c2c(=O)n1-c1ccccc1 [Compound 35a, (S)-2-(1-(6-amino-5-((5-aminopyridin-2-yl)ethynyl)pyrimidin-4-ylamino)ethyl)-5-chloro-3-phenylquinazolin-4(3H)-one]
20 | > 1 µM | < 100 nM | > 1 µM | > 1 µM |  |  |  | C[C@H](Nc1ncnc(N)c1C#Cc1ccc(F)cn1)c1nc2cccc(O)c2c(=O)n1-c1ccccc1 [Compound 52a, (S)-2-(1-((6-amino-5-((5-fluoropyridin-2-yl)ethynyl)pyrimidin-4-yl)amino)ethyl)-5-hydroxy-3-phenylquinazolin-4(3H)-one]
21 | > 1 µM | < 100 nM | > 1 µM | > 1 µM |  |  |  | Cc1ccc(Cl)c2c(=O)n(-c3ccccc3)c([C@H](C)Nc3ncnc(N)c3C#Cc3ccc(F)cn3)nc12 [Compound 53a, (S)-2-(1-((6-amino-5-((5-fluoropyridin-2-yl)ethynyl)pyrimidin-4-yl)amino)ethyl)-5-chloro-8-methyl-3-phenylquinazolin-4(3H)-one]
22 | > 1 µM | < 100 nM | > 1 µM | > 1 µM |  |  |  | C[C@H](Nc1ncnc(N)c1C#Cc1cnccn1)c1nc2cccc(C#N)c2c(=O)n1-c1ccccc1 [Compound 55a, (S)-2-(1-((6-amino-5-(pyrazin-2-ylethynyl)pyrimidin-4-yl)amino)ethyl)-4-oxo-3-phenyl-3,4-dihydroquinazoline-5-carbonitrile]
23 | > 1 µM | < 100 nM | > 1 µM | > 1 µM |  |  |  | Cc1cccc2c(=O)n(-c3ccccc3)c([C@H](C)Nc3ncnc(N)c3C#Cc3ccc(F)cn3)nc12 [Compound 56a, (S)-2-(1-((6-amino-5-((5-fluoropyridin-2-yl)ethynyl)pyrimidin-4-yl)amino)ethyl)-8-methyl-3-phenylquinazolin-4(3H)-one]
